In US20250151812A1, “METHOD AND INHALER FOR PROVIDING TWO OR MORE […] INHALATION” (Syqe Medical Ltd., priority 2018, published 2025):
Values joined by “and” are separate entries in the source; they are usually repeats but may differ in a detail not shown here. Equal values may be shown once.

Tests used:
Type in all cases: physicochemical
[1] = Bediol strain Cannabis, two heating durations; aerosol analyzed using UPLC (Table 3, FIG. 17B); conditions: 180 C., 1.1 L/min; for mg API: in aerosol, 13.5 mg Bediol strain Cannabis; for total (acid + neutral form): sum for the acid and its neutral form, 13.5 mg Bediol
Method: In the following related experiment performed by the inventors, samples having 13.5 mg of Bediol strain Cannabis (Bedrocan, Holland) were tested using two operation profiles and compared to a raw material. The samples were heated to a temperature of 180° C. under an airflow rate of 1.1 liter/minute. In the first operation profile, the heating duration was 1.5 seconds; in the second operation profile, the heating duration was 2.5 seconds. Aerosol was collected, extracted and analyzed using UPLC. As can be observed from this example, under certain conditions, lengthening the heating duration increased the CBD/total THC ratio (from about 0.79 in the first operation profile to about 0.96 in the second operation profile). As can also be observed from this example, under certain conditions, lengthening the heating duration released higher amounts of all active substances tested (CBDA, CBD, THCA, Δ9-THC). (API-active pharmaceutical ingredient).

[2] = FIG. 6: CBDA/CBD and THCA/Δ9-THC ratios at two operation profiles; aerosol analyzed using UPLC; conditions: 13.5 mg cannabis; 180° C., airflow 1 liter/minute; 1.5 seconds versus 2.5 second
Method: Reference is now made to FIG. 6, which is a bar chart of the ratios between CBDA/CBD and THCA/Δ9-THC received at various operation profiles according to some embodiments of the invention. Samples having 13.5 mg of a defined type of cannabis were tested at two operation profiles. The samples were heated to a temperature of 180° C. under an airflow of 1 liter/minute) for 1.5 seconds and 2.5 second. Aerosol was collected, extracted and analyzed using UPLC.

[3] = Effect of airflow rate on decarboxylation of THCA; aerosol from heated Bedrocan cannabis samples analyzed in UPLC; conditions: 13.5 mg Bedrocan sample, 185° C., 1620 ms
Method: In the following experiment performed by the inventors, the effect of airflow rate on decarboxylation of THCA was tested. 14 samples (7 samples tested in each of the profiles) of 13.5 mg each of Bedrocan strain (Bedrocan, Holland) were heated for 1620 ms to a temperature of 185° C. In a first operation profile (upper table), the rate of flow through the sample was set to 1.1 L/min; in a second operation profile (lower table), the rate of airflow through the sample was set to 0.85 L/min. Aerosol was collected and extracted and analyzed in UPLC (Ultra performance liquid chromatography) for the presence of THCA and Δ9-THC. As can be observed, in this example, under certain conditions, increasing the rate of flow through the sample increased the percentage of THCA in the aerosol. (As shown below, the percentage of THCA was calculated as the amount of THCA divided by the total amount of both THCA and Δ9-THC.) The graph of FIG. 17A presents the results shown in the table below.

[4] = Various operation profiles (heating temperature, airflow rate, heating duration); aerosol analyzed in UPLC for THCA and Δ9-THC
Method: In another experiment performed by the inventors, various operation profiles were tested. In lines 1-9 of the table below, a change in the heating temperature was tested, while the rate of airflow and the heating duration remained constant. Aerosol was collected and extracted and analyzed in UPLC for the presence of THCA and Δ9-THC. A graph presenting the results obtained for the various heating temperatures is shown in FIG. 7 and further discussed below; in lines 10-14 of the table, a change in the rate of airflow was tested, while the temperature and the heating duration remained constant; in lines 17-19 of the table, a change in the heating duration was tested, while the temperature and rate of airflow remained constant. As can be observed, in this example, under certain conditions, increasing the heating temperature (while maintaining other parameters (flow rate, duration of heating) constant) reduced the percentage of THCA released; lengthening the heating duration (while maintaining other parameters constant) reduced the percentage of THCA released. (As shown below, the percentage of THCA was calculated as the amount of THCA divided by the total amount of both THCA and Δ9-THC.)
Reference is now made to FIG. 7 which is a graph showing the effect of the temperature on the relative amount of THCA vaporized. The experiment procedure and the results are also discussed above and presented in Table 2 Samples having 13.5 mg of a defined type of cannabis were tested by applying air at 1.1 liter/minute for 1.5 seconds at various temperatures from 160°° C. to 200° C. The relative amount of THCA were measured against the total amounts of Δ9-THC+THCA. […] Accordingly, by selecting the temperature and/or the time-temperature profile, the amount of THCA provided during inhalation may be controlled (e.g., selected by the user).

Compound | mg API ([1]; heating duration 1500 ms) | mg API ([1]; heating duration 2500 ms) | total (acid + neutral form) ([1]; heating duration 1500 ms) | total (acid + neutral form) ([1]; heating duration 2500 ms) | amount of acids left after vaporization, by heating duration [2] | Δ9-THC ([3]; flow rate 0.85 L/min) | Δ9-THC ([3]; flow rate 1.1 L/min) | Δ9-THC ([4]; 13.5 mg cannabis, 1.1 L/min, 1500 ms, 160° C.) | Δ9-THC ([4]; 13.5 mg cannabis, 1.1 L/min, 1500 ms, 175° C.) | Δ9-THC ([4]; 13.5 mg cannabis, 1.1 L/min, 1500 ms, 200° C.) | Δ9-THC ([4]; 175 C., 1500 ms, flow 1.2 L/min) | Δ9-THC ([4]; 175 C., 1500 ms, flow 1.3 L/min) | Δ9-THC ([4]; 185° C., 1.1 L/min, heating 600 ms) | Δ9-THC ([4]; 185° C., 1.1 L/min, heating 800 ms) | Δ9-THC ([4]; 185° C., 1.1 L/min, heating 1000 ms)
C=C(C)[C@@H]1CCC(C)=C[C@H]1c1c(O)cc(CCCCC)cc1O [CBD, Cannabidiol, reference compound] | 0.201 mg | 0.477 mg |  |  |  |  |  |  |  |  |  |  |  |  | 
C=C(C)[C@@H]1CCC(C)=C[C@H]1c1c(O)cc(CCCCC)c(C(=O)O)c1O [CBDA, cannabidiolic acid] | 0.125 mg | 0.188 mg | 0.311 | 0.642 | the longer the operation profile the less amount of acids |  |  |  |  |  |  |  |  |  | 
CCCCCc1cc(O)c2c(c1)OC(C)(C)[C@@H]1CCC(C)=C[C@@H]21 [Δ9-THC, Δ9-tetrahydrocannabinol, reference compound] | 0.254 mg | 0.498 mg |  |  |  | 0.521 mg and 0.559 mg and 0.529 mg and 0.486 mg and 0.434 mg and 0.357 mg and 0.365 mg | 0.462 mg and 0.452 mg and 0.445 mg and 0.484 mg and 0.527 mg and 0.431 mg and 0.587 mg | 0.220 mg and 0.201 mg and 0.208 mg | 0.475 mg and 0.461 mg and 0.478 mg | 0.972 mg and 0.831 mg and 0.790 mg | 0.467 mg and 0.423 mg | 0.459 mg and 0.468 mg and 0.440 mg | 0.093 mg | 0.315 mg | 0.620 mg
